Measured values from patent US20080255060A1, “Ester Linked Macrolides Useful For The Treatment of Microbial Infections” (priority 2004, published 2008).

How the values were obtained:
Test in all cases: MIC, standard microtiter broth serial dilution test
Format in all cases: cell-based
[1] = tested on: M. catarrhalis ATCC 0324; conditions: Moraxella catarrhalis, ATCC0324
[2] = tested on: H. influenzae ATCC 0529; conditions: Haemophilus influenzae, ATCC0529
[3] = tested on: S. pneumoniae 0541; conditions: Streptococcus pneumoniae
[4] = tested on: S. pyogenes 0542; conditions: Streptococcus pyogenes
[5] = tested on: S. aureus Smith ATCC 0329; conditions: Staphylococcus aureus, ATCC0329
[6] = tested on: E. faecalis ATCC 0004; conditions: Enterococcus faecalis, ATCC0004

SMILES | MIC [1] | MIC [2] | MIC [3] | MIC [4] | MIC [5] | MIC [6]
CC[C@H]1OC(=O)[C@H](C)[C@@H](OC2C[C@@](C)(OC)[C@@H](OC(=O)CCNCCOCC#Cc3ccc4c(c3)c(=O)c(C(=O)O)cn4CC)[C@H](C)O2)[C@H](C)[C@@H](OC2O[C@H](C)C[C@H](N(C)C)[C@H]2O)[C@](C)(O)C[C@@H](C)CN(C)[C@H](C)[C@@H](OC)[C@]1(C)O (some centres unmarked) [Example 23, 11-O-Methyl-4″-O-(3-{2-[3-(3-Carboxy-1-ethyl-4-oxo-1,4-dihydro-quinolin-6-yl)-prop-2-ynyloxy]-ethylamino}-propionyl)-azithromycin] | ≤ 2 µg/mL | ≤ 2 µg/mL | ≤ 1 µg/mL | ≤ 1 µg/mL | ≤ 1 µg/mL | ≤ 1 µg/mL
CC[C@H]1OC(=O)[C@H](C)[C@@H](O[C@H]2C[C@@](C)(OC)[C@@H](OC(=O)CCOCCOCCNc3cc4c(cc3F)c(=O)c(C(=O)O)cn4C3CC3)[C@H](C)O2)[C@H](C)[C@@H](O[C@@H]2O[C@H](C)C[C@H](N(C)C)[C@H]2O)[C@](C)(OC)C[C@@H](C)C(=O)[C@H](C)[C@@H](O)[C@]1(C)O [Example 27, 4″-O-(3-{2-[2-(3-Carboxy-6-fluoro-1-cyclopropyl-4-oxo-1,4-dihydro-quinolin-7-ylamino)-ethoxy]-ethoxy}-propionyl)-6-O-methyl-erythromycin A] | ≤ 2 µg/mL | ≤ 2 µg/mL | ≤ 1 µg/mL | ≤ 1 µg/mL | ≤ 1 µg/mL | ≤ 1 µg/mL
CC[C@H]1OC(=O)[C@H](C)[C@@H](OC2C[C@@](C)(OC)[C@@H](OC(=O)CCOCCOCCOc3ccc4c(=O)c(C(=O)O)cn(C5CC5)c4c3)[C@H](C)O2)[C@H](C)[C@@H](OC2O[C@H](C)C[C@H](N(C)C)[C@H]2O)[C@](C)(O)C[C@@H](C)CN(C)[C@H](C)[C@@H](O)[C@]1(C)O (some centres unmarked) [Example 35, 4″-O-(3-{2-[2-(3-Carboxy-1-cyclopropyl-4-oxo-1,4-dihydro-quinolin-7-yloxy)-ethoxy]-ethoxy}-propionyl)-azithromycin] | ≤ 2 µg/mL | ≤ 2 µg/mL | ≤ 1 µg/mL | ≤ 1 µg/mL | ≤ 1 µg/mL | ≤ 1 µg/mL
CC[C@H]1OC(=O)[C@H](C)[C@@H](OC2C[C@@](C)(OC)[C@@H](OC(=O)CCNCCOCC#Cc3ccc4c(c3)c(=O)c(C(=O)O)cn4CC)[C@H](C)O2)[C@H](C)[C@@H](OC2O[C@H](C)C[C@H](N(C)C)[C@H]2O)[C@](C)(OC)C[C@@H](C)C(=O)[C@H](C)[C@@H](O)[C@]1(C)O (some centres unmarked) [Example 36, 4″-O-(3-{2-[3-(3-carboxy-1-ethyl-4-oxo-1,4-dihydro-quinolin-6-yl)-prop-2-ynyloxy]-ethylamino}-propionyl)-6-O-methyl-erythromycin A] | ≤ 2 µg/mL | ≤ 2 µg/mL | ≤ 1 µg/mL | ≤ 1 µg/mL | ≤ 1 µg/mL | ≤ 1 µg/mL
CC[C@H]1OC(=O)[C@H](C)[C@@H](OC2C[C@@](C)(OC)[C@@H](OC(=O)CCOCCOCCOc3ccc4c(=O)c(C(=O)O)cn(C5CC5)c4c3)[C@H](C)O2)[C@H](C)[C@@H](O[C@@H]2O[C@H](C)C[C@H](N(C)C)[C@H]2O)[C@](C)(OC)C[C@@H](C)C(=O)[C@H](C)[C@@H](O)[C@]1(C)O (some centres unmarked) [Example 38, 4″-O-(3-{2-[2-(3-Carboxy-1-cyclopropyl-4-oxo-1,4-dihydro-quinolin-7-yloxy)-ethoxy]-ethoxy}-propionyl)-6-O-methyl-erythromycin A] | ≤ 2 µg/mL | ≤ 2 µg/mL | ≤ 1 µg/mL | ≤ 1 µg/mL | ≤ 1 µg/mL | ≤ 1 µg/mL
CC[C@H]1OC(=O)[C@H](C)[C@@H](O[C@H]2C[C@@](C)(OC)[C@@H](OC(=O)CCOCCOCCNc3cc4c(=O)c(C(=O)O)cn(C5CC5)c4cc3N(C)C)[C@H](C)O2)[C@H](C)[C@@H](OC2O[C@H](C)C[C@H](N(C)C)[C@H]2O)[C@](C)(O)C[C@@H](C)CN(C)[C@H](C)[C@@H](O)[C@]1(C)O (some centres unmarked) [Example 48, 4″-O-(3-{2-[2-(3-Carboxy-1-cyclopropyl-7-dimethylamino-4-oxo-1,4-dihydro-quinolin-6-ylamino)-ethoxy]-ethoxy}-propionyl)azithromycin] | ≤ 2 µg/mL | ≤ 2 µg/mL | ≤ 1 µg/mL | ≤ 1 µg/mL | ≤ 1 µg/mL | ≤ 1 µg/mL
CC[C@H]1OC(=O)[C@H](C)[C@@H](O[C@H]2C[C@@](C)(OC)[C@@H](OC(=O)CCNCCOCCOCC#Cc3ccc4c(c3)c(=O)c(C(=O)O)cn4CC)[C@H](C)O2)[C@H](C)[C@@H](O[C@@H]2O[C@H](C)C[C@H](N(C)C)[C@H]2O)[C@](C)(O)C[C@@H](C)CN(C)[C@H](C)[C@@H](O)[C@]1(C)O [Example 62, 4″-O-[3-(2-{2-[3-(3-Carboxy-1-ethyl-4-oxo-1,4-dihydro-quinolin-6-yl)-prop-2-ynyloxy]-ethoxy}-ethylamino)-propionyl]-azithromycin] | ≤ 2 µg/mL | ≤ 2 µg/mL | ≤ 1 µg/mL | ≤ 1 µg/mL | ≤ 1 µg/mL | ≤ 1 µg/mL

Next, values leading:

MIC [1] | MIC [2] | MIC [3] | MIC [4] | MIC [5] | MIC [6] | SMILES
≤ 2 µg/mL | ≤ 2 µg/mL | ≤ 1 µg/mL | ≤ 1 µg/mL | ≤ 1 µg/mL | ≤ 1 µg/mL | CCOC(=O)c1cn(CC)c2ccc(C#CCN3CCN(CCC(=O)O[C@H]4[C@H](C)OC(O[C@H]5[C@H](C)[C@@H](OC6O[C@H](C)C[C@H](N(C)C)[C@H]6O)[C@](C)(OC)C[C@@H](C)C(=O)[C@H](C)[C@@H](O)[C@](C)(O)[C@@H](CC)OC(=O)[C@@H]5C)C[C@@]4(C)OC)CC3)cc2c1=O (some centres unmarked) [Example 3, 4″-O-(3-{4-[3-(3-Ethoxycarbonyl-1-ethyl-4-oxo-1,4-dihydro-quinolin-6-yl)-prop-2-ynyl]-piperazin-1-yl}-propionyl)-6-O-methyl-erythromycin A]
≤ 2 µg/mL | ≤ 2 µg/mL | ≤ 1 µg/mL | ≤ 1 µg/mL | ≤ 1 µg/mL | ≤ 1 µg/mL | CC[C@H]1OC(=O)[C@H](C)[C@@H](O[C@H]2C[C@@](C)(OC)[C@@H](OC(=O)CCN3CCN(CC#Cc4ccc5c(c4)c(=O)c(C(=O)O)cn5CC)CC3)[C@H](C)O2)[C@H](C)[C@@H](O[C@@H]2O[C@H](C)C[C@H](N(C)C)[C@H]2O)[C@](C)(O)C[C@@H](C)CN(C)[C@H](C)[C@@H](OC)[C@]1(C)O [Example 4]
– | – | ≤ 1 µg/mL | ≤ 1 µg/mL | ≤ 1 µg/mL | ≤ 1 µg/mL | CC[C@H]1OC(=O)[C@H](C)[C@@H](O[C@H]2C[C@@](C)(OC)[C@@H](OC(=O)CCN3CCN(CCCc4ccc5c(c4)c(=O)c(C(=O)O)cn5CC)CC3)[C@H](C)O2)[C@H](C)[C@@H](O[C@@H]2O[C@H](C)C[C@H](N(C)C)[C@H]2O)[C@](C)(O)C[C@@H](C)CN(C)[C@H](C)[C@@H](OC)[C@]1(C)O [Example 5]
– | – | ≤ 1 µg/mL | ≤ 1 µg/mL | ≤ 1 µg/mL | ≤ 1 µg/mL | CC[C@H]1OC(=O)[C@H](C)[C@@H](O[C@H]2C[C@@](C)(OC)[C@@H](OC(=O)CCOCCOCCNc3cc4c(=O)c(C(=O)O)cn(C5CC5)c4cc3Cl)[C@H](C)O2)[C@H](C)[C@@H](O[C@@H]2O[C@H](C)C[C@H](N(C)C)[C@H]2O)[C@](C)(OC)C[C@@H](C)C(=O)[C@H](C)[C@@H](O)[C@]1(C)O [Example 7, 4″-O-(3-{2-[2-(3-Carboxy-7-chloro-1-cyclopropyl-4-oxo-1,4-dihydro-quinolin-6-ylamino)-ethoxy]-ethoxy}-propionyl)-6-O-methyl-erythromycin A]
≤ 2 µg/mL | ≤ 2 µg/mL | ≤ 1 µg/mL | ≤ 1 µg/mL | ≤ 1 µg/mL | ≤ 1 µg/mL | CC[C@H]1OC(=O)[C@H](C)[C@@H](OC2C[C@@](C)(OC)[C@@H](OC(=O)CNC(=O)CCOCCNc3c(F)cc4c(=O)c(C(=O)O)cn(C5CC5)c4c3OC)[C@H](C)O2)[C@H](C)[C@@H](O[C@@H]2O[C@H](C)C[C@H](N(C)C)[C@H]2O)[C@](C)(O)C[C@@H](C)CN(C)[C@H](C)[C@@H]2OC(=O)O[C@]12C (some centres unmarked) [Example 14, 4″-O-(2-{3-[2-(3-Carboxy-6-fluoro-1-cyclopropyl-8-methoxy-4-oxo-1,4-dihydro-quinolin-7-ylamino)-ethoxy]-propionylamino}-acetyl)-azithromycin 11,12-cyclic carbonate]
≤ 2 µg/mL | ≤ 2 µg/mL | ≤ 1 µg/mL | ≤ 1 µg/mL | ≤ 1 µg/mL | ≤ 1 µg/mL | CC[C@H]1OC(=O)[C@H](C)[C@@H](OC2C[C@@](C)(OC)[C@@H](OC(=O)CCNCCOCCCc3ccc4c(c3)c(=O)c(C(=O)O)cn4CC)[C@H](C)O2)[C@H](C)[C@@H](OC2O[C@H](C)C[C@H](N(C)C)[C@H]2O)[C@](C)(O)C[C@@H](C)CN(C)[C@H](C)[C@@H](OC)[C@]1(C)O (some centres unmarked) [Example 24, 11-O-Methyl-4″-O-(3-{2-[3-(3-Carboxy-1-ethyl-4-oxo-1,4-dihydro-quinolin-6-yl)-propoxy]-ethylamino}-propionyl)-azithromycin]
≤ 2 µg/mL | ≤ 2 µg/mL | ≤ 1 µg/mL | ≤ 1 µg/mL | ≤ 1 µg/mL | ≤ 1 µg/mL | CC[C@H]1OC(=O)[C@H](C)[C@@H](O[C@H]2C[C@@](C)(OC)[C@@H](OC(=O)CCOCCOCCNc3cc4c(=O)c(C(=O)O)cn(C5CC5)c4cc3Cl)[C@H](C)O2)[C@H](C)[C@@H](O[C@@H]2O[C@H](C)C[C@H](N(C)C)[C@H]2O)[C@](C)(OC)C[C@@H](C)C(=O)[C@H](C)[C@H]2NC(=O)O[C@@]21C [Example 26, 4″-O-(3-{2-[2-(3-Carboxy-7-chloro-1-cyclopropyl-4-oxo-1,4-dihydro-quinolin-6-ylamino)-ethoxy]-ethoxy}-propionyl)-6-O-methyl-erythromycin A 11,12-cyclic carbamate]
